# Experiments:
# Type in all cases: physicochemical
# [1] = Particle size distribution by MASTERSIZER 2000 laser light scattering
# From the text: The particle size distribution plots of the drawings were obtained using a MASTERSIZER™ 2000 laser light scattering instrument sold by Malvern Instruments Ltd. of Malvern, Worcestershire, United Kingdom. In the plots, values in the vertical axis represent a volume percentage of particles and the horizontal axis is a logarithmic scale of particle sizes, in μm units.
# [2] = Bulk density and tapped bulk density, Test Method 616 of United States Pharmacopeia 24; details: for tapped bulk density: after tapping
# [3] = Storage of polymorphic forms under ambient conditions, form checked by XRPD; details: for polymorphic form after storage (XRPD pattern): ambient conditions; for polymorphic form stability upon storage: storage at ambient temperatures
# From the text: The various forms of tadalafil are characterized by their XRPD patterns, which differ between polymorpic forms. All XRPD results reported herein were obtained using Cu Kα radiation, having the wavelength 1.541 Å. The XRPD patterns of the figures have a vertical axis that is intensity units, and a horizontal axis that is degrees 2θ.
SMILES,diameters of 10 volume percent of the particles [1],diameters of 50 volume percent of the particles [1],diameters of 90 volume percent of the particles [1],bulk density [2],tapped bulk density [2],polymorphic form stability upon storage ([3]; listed as mixtures of Form A and Form B),polymorphic form stability upon storage [3],"polymorphic form after storage (XRPD pattern) ([3]; sealed polyethylene bag, 3 to 4 days)","polymorphic form after storage (XRPD pattern) ([3]; sealed in a polyethylene bag, 40 hours)"
"CN1CC(=O)N2[C@H](c3ccc4c(c3)OCO4)c3[nH]c4ccccc4c3C[C@@H]2C1=O [Example 1, tadalafil]",less than 31 μm,less than 104 μm,less than 321 μm,0.344 g/mL,0.666 g/mL,,,,
"CN1CC(=O)N2[C@H](c3ccc4c(c3)OCO4)c3[nH]c4ccccc4c3C[C@@H]2C1=O [Example 21, tadalafil]",,,,,,will convert to only Form A,,conversion of the tadalafil Form B into Form A,
"CN1CC(=O)N2[C@H](c3ccc4c(c3)OCO4)c3[nH]c4ccccc4c3C[C@@H]2C1=O [Tadalafil Form B, tadalafil]",,,,,,,spontaneously converts to Form A,,conversion of the tadalafil Form B into Form A

# More lines, main results first:
diameters of 10 volume percent of the particles [1],diameters of 50 volume percent of the particles [1],diameters of 90 volume percent of the particles [1],bulk density [2],tapped bulk density [2],polymorphic form stability upon storage ([3]; listed as mixtures of Form A and Form B),polymorphic form stability upon storage [3],SMILES,"polymorphic form after storage (XRPD pattern) ([3]; sealed polyethylene bag, 3 to 4 days)","polymorphic form after storage (XRPD pattern) ([3]; sealed in a polyethylene bag, 40 hours)"
less than 9.9 μm,less than 40 μm,less than 148 μm,0.181 g/mL,0.434 g/mL,,,"CN1CC(=O)N2[C@H](c3ccc4c(c3)OCO4)c3[nH]c4ccccc4c3C[C@@H]2C1=O [Example 11, tadalafil]",,
less than 58 μm,less than 193 μm,less than 428 μm,0.435 g/mL,0.626 g/mL,,,"CN1CC(=O)N2[C@H](c3ccc4c(c3)OCO4)c3[nH]c4ccccc4c3C[C@@H]2C1=O [Example 15, tadalafil]",,

# From patent US8063214B2, “Polymorphic forms of tadalafil” (Dr. Reddy's Laboratories Limited, priority 2004, dated 2011)
